Results taken from ChEMBL document CHEMBL6182909 (J Med Chem, 2025).
≈ marks a conversion by molar mass, not a printed value. Calls of active or inactive are those of the source. The calls are words filed in the database; no cut-off is given here.

Tests used:
[1] = Clearance in mouse at 2 mg/kg, iv; format: ADME, organism-based; settings: in vivo
[2] = Volume of distribution at steady state in mouse at 2 mg/kg, iv; format: ADME, organism-based; settings: in vivo, read-out: Vdss
[3] = Tmax in rat at 5 mg/kg, po; format: ADME, organism-based; settings: in vivo
[4] = AUC (0 to infinity) in rat at 5 mg/kg, po; format: ADME, organism-based; settings: in vivo
[5] = Cmax in dog at 5 mg/kg, po; format: ADME, organism-based, Canis lupus familiaris; settings: in vivo
[6] = AUC (0 to infinity) in dog at 2 mg/kg, iv; format: ADME, organism-based, Canis lupus familiaris; settings: in vivo
[7] = Unbound fraction in brain of fasted male Sprague-Dawley rat at 10 mg/kg, po; format: ADME, organism-based; settings: in vivo
[8] = Clearance in rat at 2 mg/kg, iv; format: ADME, organism-based; settings: in vivo
[9] = Water solubility of compound; format: physicochemical; settings: buffer
Rattus norvegicus [10] = test: Hypophagic effect in fasted male Sprague-Dawley rat assessed as inhibition of food intake at 10 mg/kg, po measured after 1 hr relative to control; format: functional; settings: Rattus norvegicus, Sprague-Dawley, po
[11] = AUC (0 to infinity) in mouse at 5 mg/kg, po; format: ADME, organism-based; settings: in vivo
[12] = Half life in rat at 5 mg/kg, po; format: ADME, organism-based; settings: in vivo
[13] = Oral bioavailability in Cynomolgus monkey at 5 mg/kg; format: ADME, organism-based, Macaca fascicularis; settings: in vivo
[14] = Half life in mouse at 5 mg/kg, po; format: ADME, organism-based; settings: in vivo
[15] = Half life in rat at 2 mg/kg, iv; format: ADME, organism-based; settings: in vivo
[16] = Oral bioavailability in dog at 5 mg/kg; format: ADME, organism-based, Canis lupus familiaris; settings: in vivo
[17] = Half life in mouse at 2 mg/kg, iv; format: ADME, organism-based; settings: in vivo
[18] = AUC (0 to infinity) in dog at 5 mg/kg, po; format: ADME, organism-based, Canis lupus familiaris; settings: in vivo
Rattus norvegicus [19] = test: Hypophagic effect in fasted male Sprague-Dawley rat assessed as effective dose administered orally measured after 1 hr relative to control; format: functional; settings: route po
[20] = Clearance in Cynomolgus monkey at 2 mg/kg, iv; format: ADME, organism-based, Macaca fascicularis; settings: in vivo
[21] = Renal clearance in rat at 2 mg/kg, iv; format: ADME, organism-based; settings: in vivo
[22] = Cmax in rat at 5 mg/kg, po; format: ADME, organism-based; settings: in vivo
[23] = Unbound fraction in plasma of fasted male Sprague-Dawley rat at 10 mg/kg, po; format: ADME, organism-based
Rattus norvegicus [24] = test: Hypophagic effect in fasted male Sprague-Dawley rat at 10 mg/kg, po measured after 1 hr in presence of SB242084; format: functional, organism-based
[25] = Half life in Cynomolgus monkey at 2 mg/kg, iv; format: ADME, organism-based, Macaca fascicularis; settings: in vivo
[26] = Renal clearance in dog at 2 mg/kg, iv; format: ADME, organism-based, Canis lupus familiaris; settings: in vivo
[27] = Volume of distribution at steady state in rat at 2 mg/kg, iv; format: ADME, organism-based; settings: in vivo, read-out: Vdss
[28] = AUC (0 to infinity) in mouse at 2 mg/kg, iv; format: ADME, organism-based; settings: in vivo
[29] = Half life in dog at 2 mg/kg, iv; format: ADME, organism-based, Canis lupus familiaris; settings: in vivo
[30] = Stability in hepatocytes (unknown origin); format: ADME, cell-based, Hepatocyte
[31] = Clearance in dog at 2 mg/kg, iv; format: ADME, organism-based, Canis lupus familiaris; settings: in vivo
[32] = Cmax in mouse at 5 mg/kg, po; format: ADME, organism-based; settings: in vivo
[33] = Basicity constant, pKa of compound; format: physicochemical
[34] = Volume of distribution at steady state in Cynomolgus monkey at 2 mg/kg, iv; format: ADME, organism-based, Macaca fascicularis; settings: in vivo, read-out: Vdss
[35] = AUC (0 to infinity) in Cynomolgus monkey at 5 mg/kg, po; format: ADME, organism-based, Macaca fascicularis; settings: in vivo
[36] = Cmax in Cynomolgus monkey at 5 mg/kg, po; format: ADME, organism-based, Macaca fascicularis; settings: in vivo
[37] = Half life in Cynomolgus monkey at 5 mg/kg, po; format: ADME, organism-based, Macaca fascicularis; settings: in vivo
[38] = Oral bioavailability in mouse at 5 mg/kg; format: ADME, organism-based; settings: in vivo
[39] = Tmax in Cynomolgus monkey at 5 mg/kg, po; format: ADME, organism-based, Macaca fascicularis; settings: in vivo
[40] = AUC (0 to infinity) in rat at 2 mg/kg, iv; format: ADME, organism-based; settings: in vivo
[41] = Renal clearance in Cynomolgus monkey at 2 mg/kg, iv; format: ADME, organism-based, Macaca fascicularis; settings: in vivo, iv, 2 mg/kg
[42] = Tmax in dog at 5 mg/kg, po; format: ADME, organism-based, Canis lupus familiaris; settings: in vivo
[43] = AUC (0 to infinity) in Cynomolgus monkey at 2 mg/kg, iv; format: ADME, organism-based, Macaca fascicularis; settings: in vivo
[44] = Volume of distribution at steady state in dog at 2 mg/kg, iv; format: ADME, organism-based, Canis lupus familiaris; settings: in vivo, read-out: Vdss
[45] = Tmax in mouse at 5 mg/kg, po; format: ADME, organism-based; settings: in vivo
[46] = Half life in dog at 5 mg/kg, po; format: ADME, organism-based, Canis lupus familiaris; settings: in vivo
[47] = Stability in microsomes (unknown origin); format: ADME, Microsome

CNC(=O)c1ccc2c3c1CCN3CCNC2
clearance [1]: 99 mL/min/kg | Vd [2]: 2.44 L/kg | Tmax [3]: 0.58 h | AUC(0-inf) [4]: 2020 ng·h/mL | Cmax [5]: 1820 ng/mL | AUC(0-inf) [6]: 1830 ng·h/mL | Fu [7]: 75% | clearance [8]: 44.3 mL/min/kg | solubility [9]: 91 mg/mL (≈ 393 mM) | inhibition in vivo at 10 mg/kg (Rattus norvegicus [10]): 87% | AUC(0-inf) [11]: 720 ng·h/mL | half-life [12]: 1.51 h | bioavailability [13]: 71.2% | half-life [14]: 0.6 h | half-life [15]: 0.56 h | bioavailability [16]: 90.2% | half-life [17]: 0.41 h | AUC(0-inf) [18]: 4130 ng·h/mL | ED50 (Rattus norvegicus [19]): 6.4 mg/kg | clearance [20]: 16.7 mL/min/kg | CL renal [21]: 24 mL/min/kg | Cmax [22]: 570 ng/mL | fraction unbound [23]: 0.87 | Activity (Rattus norvegicus [24]): inactive | half-life [25]: 1.49 h | CL renal [26]: 1.17 mL/min/kg | Vd [27]: 1.89 L/kg | AUC(0-inf) [28]: 340 ng·h/mL | half-life [29]: 1.38 h | Stability [30]: Stable | clearance [31]: 18.3 mL/min/kg | Cmax [32]: 940 ng/mL | pKa [33]: 7.93 | Vd [34]: 1.8 L/kg | AUC(0-inf) [35]: 3580 ng·h/mL | Cmax [36]: 700 ng/mL | half-life [37]: 2.07 h | bioavailability [38]: 85.6% | Tmax [39]: 2.33 h | AUC(0-inf) [40]: 770 ng·h/mL | CL [41]: 4.5 mL/min/kg | Tmax [42]: 0.92 h | AUC(0-inf) [43]: 2000 ng·h/mL | Vd [44]: 1.41 L/kg | Tmax [45]: 0.25 h | half-life [46]: 1.9 h | Stability [47]: Stable
